pKi: −log10 of the molar value. Where “and” joins values, the source holds several entries; their conditions need not be identical. Equal entries are not always repeated.
How the values were obtained:
HIV-1 protease [1] = target: T1, HIV-1 protease (Human immunodeficiency virus type 1 group M subtype B, UniProt P04585); experiment: biochemical; conditions: for inhibition at 0.37 µM: read-out: HIV-1 Protease % Inhib, dose 0.370 uM; for inhibition at 1.1 µM: read-out: HIV-1 Protease % Inhib, dose 1.100 uM; for inhibition at 3.3 µM: read-out: HIV-1 Protease % Inhib, dose 3.300 uM; for inhibition at 10 µM: read-out: HIV-1 Protease % Inhib, dose 10.000 uM; for inhibition at 30 µM: read-out: HIV-1 Protease % Inhib, dose 30.000 uM; for inhibition at 0.123 µM: read-out: HIV-1 Protease % Inhib, dose 0.123 uM; for inhibition at 1 µM: read-out: HIV-1 Protease % Inhib, dose 1.000 uM; for inhibition at 100 µM: read-out: HIV-1 Protease % Inhib, dose 100.000 uM
In short: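 Percent inhibition derived from fluorescent cleavage product separated by filtration after streptavidin-bead capture of intact biotin/FITC substrate. Reaction: enzyme (10 μl, 0.1 μM stock) with substrate (20 μl, 0.2 μM stock) and compound, 1 h at room temperature in dark, pH 5.5 acetate buffer with 1.0 M NaCl and 0.05% NP-40.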

HIV-1 protease [2] = target: T1, HIV-1 protease; experiment: biochemical; conditions: read-out: HIV-1 FITC KI
In short: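 Enzyme (40 nM stock) and substrate (200 μM stock) incubated with inhibitor, 24–48 two-fold serial concentrations, for 90 min at room temperature, then quenched with avidin beads. Nonlinear least-squares analysis gives Ki; a known-Ki inhibitor validates each run.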

SMILES	inhibition at 0.37 µM (HIV-1 protease [1])	inhibition at 1.1 µM (HIV-1 protease [1])	inhibition at 3.3 µM (HIV-1 protease [1])	inhibition at 10 µM (HIV-1 protease [1])	inhibition at 30 µM (HIV-1 protease [1])	pKi (HIV-1 protease [2])	inhibition at 0.123 µM (HIV-1 protease [1])	HIV-1 Protease % Inhib (HIV-1 protease [1]; dose 0.123 uM)	HIV-1 Protease % Inhib (HIV-1 protease [1]; dose 0.370 uM)	HIV-1 Protease % Inhib (HIV-1 protease [1]; dose 1.100 uM)	HIV-1 Protease % Inhib (HIV-1 protease [1]; dose 3.300 uM)	HIV-1 Protease % Inhib (HIV-1 protease [1]; dose 10.000 uM)	HIV-1 Protease % Inhib (HIV-1 protease [1]; dose 30.000 uM)	inhibition at 1 µM (HIV-1 protease [1])	inhibition at 100 µM (HIV-1 protease [1])
O=c1oc2c(c(O)c1C(c1cccc(NS(=O)(=O)c3ccc(NS(=O)(=O)c4ccccc4)cc3)c1)C1CC1)CCCCCC2 (centres unmarked) [Example 349, N-[3-[Cyclopropyl(5,6,7,8,9,10-hexahydro-4-hydroxy-2-oxo-2H-cycloocta[b]pyran-3-yl)methyl]phenyl]4-[(phenylsulfonyl)amino]-benzenesulfonamide]	38.4%	69%	86.4%	96.7%	88.5%	7.47	–	–	–	–	–	–	–	–	–
O=c1oc2c(c(O)c1C(c1ccccc1)C1CC1)CCCCCC2C(O)C1CC1 (centres unmarked) [Example 176, 10-(Cyclopropylhydroxymethyl)-3-(cyclopropylphenylmethyl)-5,6,7,8,9, 10-hexahydro-4-hydroxy-2H-cycloocta[b]pyran-2-one]	27.3%	82.6%	104%	109%	118%	7.43	–	–	–	–	–	–	–	–	–
O=C(COCc1ccccc1)Nc1cccc(S(=O)(=O)Nc2cccc(C(c3c(O)c4c(oc3=O)CCCCCC4)C3CC3)c2)c1 (centres unmarked) [Example 408, 3-(Benzyloxyacetylamino)-N-[3-[cyclopropyl(5,6,7,8,9,10-hexahydro-4-hydroxy-2-oxo-2H-cycloocta[b]pyran-3-yl)methyl]phenyl]-benzenesulfonamide]	70.1%	88.9%	98.5%	91.7%	107%	7.85	38.4%	–	–	–	–	–	–	–	–
O=c1oc2c(c(O)c1C(c1ccccc1)C1CC1)CCCCCC2CC1CCCO1 (single isomer, unassigned) [Example 171, 3-(Cyclopropylphenylmethyl)-5,6,7,8,9,10-hexahydro-4-hydroxy-10-[(tetrahydro-2-furanyl)methyl]-2H-cycloocta[b]pyran-2-one]	–	–	–	–	–	7.64	–	33.13%	73.44%	96.52%	103.16%	109.98%	108.64%	–	–
CCC(c1ccc(C)s1)c1c(O)c2c(oc1=O)CCCCCC2 (centres unmarked) [Example 381]	24.1%	62.3%	80.4%	99.8%	96.7%	7.41	–	–	–	–	–	–	–	–	–
O=c1oc2c(c(O)c1C(c1ccccc1)C1CC1)CCCCCC2 (centres unmarked) [Example 107, 3-(Cyclopropylphenylmethyl)-5,6,7,8,9,10-hexahydro-4-hydroxy-2h-cycloocta[b]pyran-2-one]	–	–	–	101%	–	7.70 and 7.92 and 8.15	–	–	–	–	–	–	–	90.7%	101%
COCCC1CCCCCc2c1oc(=O)c(C(c1ccccc1)C1CC1)c2O (centres unmarked) [Example 178, 3-(Cyclopropylphenylmethyl)-5,6,7,8,9,10-hexahydro-4-hydroxy-10-(2-methoxyethyl)-2H-cycloocta[b]pyran-2-one]	45.5%	86.4%	98.8%	105%	103%	7.57	16.2%	–	–	–	–	–	–	–	–
O=c1oc2c(c(O)c1C(c1cccc(NS(=O)(=O)c3ccc(OC(F)(F)F)cc3)c1)C1CC1)CCCCCC2 (centres unmarked) [Example 312, N-[3-[Cyclopropyl(5,6,7,8,9,10-hexahydro-4-hydroxy-2-oxo-2-cycloocta[b]pyran-3-yl)methyl]phenyl]-4-(trifluoromethoxy)-benzenesulfonamide]	83.6%	89.7%	106%	114%	110%	8.40	48.2%	–	–	–	–	–	–	–	–
O=c1oc2c(c(O)c1C(c1ccccc1)C1CC1)CCCCCC2CC1CCCCO1 (centres unmarked) [Example 130, 3-(Cyclopropyl-phenyl-methyl)-4-hydroxy-10-(tetrahydro-pyran-2-ylmethyl)-5,6,7,8,9,10-hexahydro-cycloocta[b]pyran-2-one]	14.7%	54%	88.6%	104%	112%	6.92	–	–	–	–	–	–	–	–	–
CC(CO)C1CCCCCc2c1oc(=O)c(C(c1ccccc1)C1CC1)c2O (centres unmarked) [Example 161, 3-(Cyclopropylphenylmethyl)-5,6,7,8,9,10-hexahydro-4-hydroxy-10-(2-hydroxy-1-methylethyl)-2H-cyclooct[b]pyran-2-one]	67.3%	98.7%	104%	106%	111%	7.49	20%	–	–	–	–	–	–	–	–
O=c1oc2c(c(O)c1[C@H](c1cccc(NS(=O)(=O)c3ccc(S(=O)(=O)c4ccccc4)s3)c1)C1CC1)CCCCCC2 [Example 404]	85.3%	103%	108%	106%	103%	8.54	58.3%	–	–	–	–	–	–	–	–
O=c1oc2c(c(O)c1C(c1cccc(NS(=O)(=O)c3cccc(S(=O)(=O)N4CCOCC4)c3)c1)C1CC1)CCCCCC2 (centres unmarked) [Example 411, N-[3-[Cyclopropyl(5,6,7,8,9,10-hexahydro-4-hydroxy-2-oxo-2H-cycloocta[b]pyran-3-yl)-methyl]phenyl]-(3-N-morpholinebenzenesulfonyl)benzenesulfonamide]	79.4%	98.5%	104%	107%	106%	8.60	71.1%	–	–	–	–	–	–	–	–
O=c1oc2c(c(O)c1[C@@H](c1cccc(NS(=O)(=O)c3cccc4cccnc34)c1)C1CC1)CCCCCC2 [Example 260, (+)-N-[3-[Cyclopropyl(5,6,7,8,9, 10-hexahydro-4-hydroxy-2-oxo-2H-cycloocta[b]pyran-3-yl)methyl]phenyl]-8-quinolinesulfonamide]	91.7%	99%	106%	102%	96.9%	9.03	73.8%	–	–	–	–	–	–	–	–
O=c1oc2c(c(O)c1C(c1cccc(S(=O)(=O)Nc3ccccc3)c1)C1CC1)CCCCCC2 (centres unmarked) [Example 400, N-Phenyl-3-[cyclopropyl(5,6,7,8,9, 10-hexahydro-4-hydroxy-2-oxo-2H-cycloocta[b]pyran-3-yl)methyl]-benzenesulfonamide]	54.8%	78.7%	94.7%	114%	109%	7.45	17.4%	–	–	–	–	–	–	–	–
O=c1oc2c(c(O)c1C(c1ccccc1)C1CC1)CCCCCCCC2 (centres unmarked) [Example 116, 3-(Cyclopropylphenylmethyl)-5,6,7,8,9,10,11,12-octahydro-4-hydroxy-2H-cyclodeca[b]pyran-2-one]	–	–	–	65.7%	–	6.25	–	–	–	–	–	–	–	23%	102%
O=c1oc2c(c(O)c1C(c1cccc(NS(=O)(=O)c3cccc(NS(=O)(=O)CCCCl)c3)c1)C1CC1)CCCCCC2 (centres unmarked) [Example 313]	96.5%	101%	100%	106%	102%	8.93	104%	–	–	–	–	–	–	–	–
CC(C)(C)OC(=O)NCC(=O)Nc1cccc(C(c2c(O)c3c(oc2=O)CCCCCC3)C2CC2)c1 (single isomer, unassigned) [Example 239, Carbamic acid, [2-[[3-(R or S)-[cyclopropyl(5,6,7,8,9,10)-hexahydro-4-hydroxy-2-oxo-2H-cycloocta[b]pyran-3-yl)methyl]phenyl]amino]-2-oxoethyl]-, 1,1-dimethyl ethyl ester]	–	–	–	–	–	8.66	–	69.55%	88.01%	98.34%	102.72%	107.4%	100.72%	–	–
CCCC(c1cccc(NS(=O)(=O)c2ccc(Cl)cc2)c1)c1c(O)c2c(oc1=O)CCCCCC2 (centres unmarked) [Example 377, Benzenesulfonamide, 4-chloro-N-[3-[1-(5,6,7,8,9,10-hexahydro-4-hydroxy-2-oxo-2H-cycloocta[b]pyran-3-yl)butyl]phenyl]-]	–	–	–	–	94.7%	8.40	92.9%	–	–	–	66.07% and 114.03%	83.74% and 107.37%	101.29%	–	–
O=c1oc2c(c(O)c1C(c1cccc(NS(=O)(=O)C=Cc3ccccc3)c1)C1CC1)CCCCCC2 (centres unmarked) [Example 320, N-[3-[Cyclopropyl(5,6,7,8,9,10-hexahydro-4-hydroxy-2-oxo-2H-cycloocta[b]pyran-3-yl)methyl]phenyl]-2-phenyl-ethenesulfonamide]	78.5%	98.2%	102%	99.3%	99%	8.42 and 8.68	66.4%	–	–	–	–	–	–	–	–

From patent US5686486A, “4-hydroxy-benzopyran-2-ones and 4-hydroxy-cycloalkyl[b]pyran-2-ones useful to treat retroviral infections” (priority 1995, dated 1997)
